Test results from publication PMC13185819, “De Novo Multi‐Mechanism Antimicrobial Peptide Design via Multimodal Deep Learning” (Advanced Science, 2026).
≈ marks a conversion by molar mass, not a printed value. Residues, ends and D or L forms follow the SMILES beside them.

What was measured:
[1] = system: intact or abraded skin of mice; test: Mouse skin tolerance test; type: in vivo, C57BL/6J mice; conditions: for skin irritation or pathology at 72 h post-treatment: shaved intact and abraded skin, 10 µL of 150 mg/mL
Method: For the skin local safety study, the intact or abraded skin of the mice was treated once with antimicrobial peptides QLX‐3DV‐1, QLX‐3DV‐2, or water. In brief, ten‐week‐old female C57BL/6J mice (n = 8 for each group) were anesthetized using isoflurane and administered buprenorphine as an analgesic at 0.1 mg/kg intraperitoneally. After removing the back hair of the mice, the skin on the back of the mice in the scratch group was sanded with 60‐grit sandpaper until the skin oozed blood. The intact skin group received no additional treatment except shaving. 10 µL QLX‐3DV‐1 and QLX‐3DV‐2 (150 mg/mL) or water was applied uniformly over the intact or abraded skin to assess the acute dermal toxicity. Groups without any addition served as untreated controls. Weight changes were recorded over 72 h. Histopathological characteristics of treated skin detected by H&E staining on the third day.

[2] = system: 25 strains of ESKAPE MDROs; type: cell-based; conditions: lowest value over gram-negative strains
Outline: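 Assays used McFarland 0.5-adjusted saline suspensions of overnight NB agar cultures (37°C), diluted 100 times before testing. Each peptide was serially diluted twofold in Mueller–Hinton Broth and incubated with an equal volume of 1 × 10^6 CFU/mL bacteria, per the CLSI method.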

mice = test: Systemic safety, intraperitoneal injection; type: in vivo, C57BL/6J mice; conditions: for hepatorenal toxicity (H&E of liver and kidney): intraperitoneal, 40 mg/kg, 12 h
Method: The 10‐week‐old female C57BL/6J mice were randomly divided into three groups (n = 8 for each group). […] Mouse survival was monitored for 96 h. For pathologic analysis, mouse liver and kidneys were obtained by surgery for hematoxylin‐eosin (HE) staining after treatment with 40 mg/kg QLX‐3DV‐1 and QLX‐3DV‐2 for 12 h.

CC[C@H](C)[C@H](NC(=O)[C@H](CCCCN)NC(=O)[C@H](Cc1c[nH]c2ccccc12)NC(=O)[C@@H](N)CCCCN)C(=O)N[C@@H](CCCCN)C(=O)N[C@@H](Cc1c[nH]c2ccccc12)C(=O)N1CCC[C@H]1C(=O)N[C@@H](CO)C(=O)N[C@@H](CCCNC(=N)N)C(=O)N[C@@H](Cc1c[nH]c2ccccc12)C(=O)N[C@@H](Cc1ccccc1)C(=O)N[C@@H](CCCNC(=N)N)C(=O)N[C@@H](CCCCN)C(=O)N[C@@H](CC(C)C)C(N)=O [QLX-3DV-1] (H-KWKIKWPSRWFRKL-NH2)
Gross pathology findings (Number of mice) ([1]; mouse, in vivo): 0 / 8 | Histopathological findings, Fibrosis in the dermis (Number of mice) ([1]; mouse, in vivo): 0 / 8 | Histopathological findings, Lymphohistiocytic infiltration in the dermis (Number of mice) ([1]; mouse, in vivo): 0 / 8 | Skin irritation, Erythema formation (Number of mice) ([1]; mouse, in vivo): 0 / 8 | skin irritation or pathology at 72 h post-treatment [1]: no signs of skin irritation or pathology | MIC against gram-negative strains, as low as [2]: 4 µg/mL (≈ 2.04 µM) | survival rate over 96 h (mice; intraperitoneal injection, 60 mg/kg, 96 h, n = 8): 100% | hepatorenal toxicity (H&E of liver and kidney) (mice): no significant hepatorenal toxicity

CC[C@H](C)[C@H](NC(=O)[C@H](CCCCN)NC(=O)[C@H](Cc1c[nH]c2ccccc12)NC(=O)[C@@H](N)CCCCN)C(=O)N[C@@H](CCCCN)C(=O)N[C@@H](Cc1c[nH]c2ccccc12)C(=O)N1CCC[C@H]1C(=O)N[C@H](C(=O)N[C@@H](CCCNC(=N)N)C(=O)N[C@@H](Cc1c[nH]c2ccccc12)C(=O)N[C@@H](Cc1ccccc1)C(=O)N[C@@H](CCCNC(=N)N)C(=O)N[C@@H](CCCCN)C(=O)N[C@@H](CC(C)C)C(N)=O)C(C)C [QLX-3DV-2] (H-KWKIKWPVRWFRKL-NH2)
Gross pathology findings (Number of mice) ([1]; mouse, in vivo): 0 / 8 | Histopathological findings, Fibrosis in the dermis (Number of mice) ([1]; mouse, in vivo): 0 / 8 | Histopathological findings, Lymphohistiocytic infiltration in the dermis (Number of mice) ([1]; mouse, in vivo): 0 / 8 | Skin irritation, Edema formation (Number of mice) ([1]; mouse, in vivo): 0 / 8 | Skin irritation, Erythema formation (Number of mice) ([1]; mouse, in vivo): 0 / 8 | skin irritation or pathology at 72 h post-treatment [1]: no signs of skin irritation or pathology | MIC against gram-negative strains, as low as [2]: 4 µg/mL (≈ 2.03 µM) | hepatorenal toxicity (H&E of liver and kidney) (mice): no significant hepatorenal toxicity
